Test results as given in article PMC3353862.
Converted amounts (≈) assume the structure as drawn.

Columns and labels:
[1] = tested on: E. coli modified with PMBN; experiment: Broth microdilution MIC testing; type: cell-based, Escherichia coli; details: for MIC: Escherichia coli, read-out: MIC E. coli +PMBP; for MIC E. coli +PMBP: E. coli modified with PMBN
[2] = tested on: bacterial protein synthesis (aminoacylation/translation system); experiment: aminoacylation/translation (A/T) assay; type: biochemical; details: for IC50: A/T assay, Table 1, read-out: IC50
S. pneumoniae = experiment: Broth microdilution MIC testing; type: cell-based, Streptococcus pneumoniae; details: for MIC: Streptococcus pneumoniae, read-out: MIC S. pneumo; for MIC S. pneumo: S. pneumoniae
S. aureus = experiment: Broth microdilution MIC testing; type: cell-based, Staphylococcus aureus; details: for MIC: Staphylococcus aureus, read-out: MIC S. aureus
E. coli tolC mutants = experiment: Broth microdilution MIC testing; type: cell-based, Escherichia coli; details: for MIC: Escherichia coli, read-out: MIC E. coli tolC; for MIC E. coli tolC: E. coli tolC mutants
H. influenzae = experiment: Broth microdilution MIC testing; type: cell-based, Haemophilus influenzae; details: for MIC: Haemophilus influenzae, read-out: MIC H. flu; for MIC H. flu: H. influenzae
E. faecalis = experiment: Broth microdilution MIC testing; type: cell-based, Enterococcus faecalis; details: for MIC: Enterococcus faecalis, read-out: MIC E. fae; for MIC E. fae: E. faecalis
M. catarrhalis = experiment: Broth microdilution MIC testing; type: cell-based, Moraxella catarrhalis; details: for MIC: Moraxella catarrhalis
panel of bacteria = experiment: Antibacterial activity against the panel of bacteria (MIC, overall); type: cell-based; details: for antibacterial activity: panel of bacteria; as to MIC (antibacterial activity grade): key: +: poor; ++: moderate; +++: good antibacterial activity

SMILES	MIC [1]	IC50 [2]	MIC (S. pneumoniae)	MIC (S. aureus)	MIC (E. coli tolC mutants)	MIC (H. influenzae)	MIC (E. faecalis)	MIC (M. catarrhalis)	antibacterial activity (panel of bacteria)	MIC E. coli +PMBP [1]	MIC S. pneumo (S. pneumoniae)	MIC S. aureus (S. aureus)	MIC E. coli tolC (E. coli tolC mutants)	MIC H. flu (H. influenzae)	MIC E. fae (E. faecalis)	MIC M. cat (M. catarrhalis)	MIC (antibacterial activity grade) (panel of bacteria; Table 3)	biochemical activity in the A/T assay [2]	fold improvement in the IC50 ([2]; relative to the original two compounds)	MIC (antibacterial activity grade) (panel of bacteria; Table 2)
Oc1cccc(CN2CCc3nc(-c4ccccn4)nc(O)c3C2)c1 [Compound 321526]	> 128 µg/mL	3.5 µM	> 128 µg/mL	> 128 µg/mL	> 128 µg/mL	> 128 µg/mL	> 128 µg/mL	64 µg/mL (≈ 191 µM)	little or no anti-bacterial activity	–	–	–	–	–	–	–	–	–	–	–
CC(C)Oc1ccc(CN2CCc3nc(-c4ccccn4)[nH]c(=O)c3C2)cc1 [Compound 323365]	–	2.27 µM	–	–	–	–	–	–	–	4 µg/mL (≈ 10.6 µM)	4 µg/mL (≈ 10.6 µM)	8 µg/mL (≈ 21.3 µM)	4 µg/mL (≈ 10.6 µM)	4 µg/mL (≈ 10.6 µM)	16 µg/mL (≈ 42.5 µM)	≤0.12 µg/mL	+++	–	–	–
COc1cc(CN2CCc3nc(-c4ccccn4)[nH]c(=O)c3C2)cc(OC)c1OC [Compound 323221]	–	> 300 µM	–	–	–	–	–	–	abolished both biochemical and microbiological activities	> 128 µg/mL	> 128 µg/mL	> 128 µg/mL	> 128 µg/mL	> 128 µg/mL	> 128 µg/mL	> 128 µg/mL	–	abolished both biochemical and microbiological activities	–	–
O=c1[nH]c(-c2ccccn2)nc2c1CN(Cc1cccc(Cl)c1Cl)CC2 [Compound 323344]	–	11.6 µM	–	–	–	–	–	–	–	4 µg/mL (≈ 10.3 µM)	2 µg/mL (≈ 5.16 µM)	8 µg/mL (≈ 20.7 µM)	1 µg/mL (≈ 2.58 µM)	4 µg/mL (≈ 10.3 µM)	32 µg/mL (≈ 82.6 µM)	≤0.12 µg/mL	+++	–	–	–
O=C(Nc1ccc(Cl)cc1)N1CCc2nc(-c3ccccn3)[nH]c(=O)c2C1 [Compound 323368]	> 128 µg/mL	0.47 µM	> 128 µg/mL	> 128 µg/mL	> 128 µg/mL	> 128 µg/mL	> 128 µg/mL	> 128 µg/mL	complete loss of antibacterial activity	–	–	–	–	–	–	–	–	–	–	–
CC1CN(Cc2ccc(Cl)cc2)Cc2c1nc(-c1ccccn1)[nH]c2=O (stereo not drawn) [Compound 332054]	1 µg/mL (≈ 2.73 µM)	7.4 µM	2 µg/mL (≈ 5.45 µM)	4 µg/mL (≈ 10.9 µM)	2 µg/mL (≈ 5.45 µM)	1 µg/mL (≈ 2.73 µM)	8 µg/mL (≈ 21.8 µM)	≤ 0.12 µg/mL	–	–	–	–	–	–	–	–	+++	–	–	–
CCN(CC)Cc1cc(CN2CCc3nc(-c4ccccn4)[nH]c(=O)c3C2)ccc1OC [Compound 323193]	–	4.1 µM	–	–	–	–	–	–	all antibacterial activity was lost	> 128 µg/mL	> 128 µg/mL	> 128 µg/mL	> 128 µg/mL	> 128 µg/mL	> 128 µg/mL	> 128 µg/mL	–	–	–	–
O=c1[nH]c(-c2ccccn2)nc2c1CN(Cc1cc(Cl)ccc1Cl)CC2 [Compound 323340]	–	> 300 µM	–	–	–	–	–	–	good antibacterial activity	2 µg/mL (≈ 5.16 µM)	2 µg/mL (≈ 5.16 µM)	4 µg/mL (≈ 10.3 µM)	1 µg/mL (≈ 2.58 µM)	1 µg/mL (≈ 2.58 µM)	16 µg/mL (≈ 41.3 µM)	≤0.12 µg/mL	+++	no inhibitory effect	–	–
COc1cc(CN2CCc3nc(-c4ccccn4)[nH]c(=O)c3C2)ccc1OCC(N)=O [Compound 323200]	–	0.4 µM	–	–	–	–	–	–	MIC was above maximum testing concentrations for the entire panel of bacteria	> 128 µg/mL	> 128 µg/mL	> 128 µg/mL	> 128 µg/mL	> 128 µg/mL	> 128 µg/mL	> 128 µg/mL	–	–	three to sevenfold	–
Cn1c(-c2ccccn2)nc2c(c1=O)CN(Cc1ccc(Cl)cc1)CC2 [Compound 323345]	128 µg/mL (≈ 349 µM)	> 300 µM	128 µg/mL (≈ 349 µM)	> 128 µg/mL	128 µg/mL (≈ 349 µM)	64 µg/mL (≈ 174 µM)	> 128 µg/mL	32 µg/mL (≈ 87.2 µM)	abolished most biochemical and antibacterial activities	–	–	–	–	–	–	–	–	abolished most biochemical and antibacterial activities	–	–
CN(C)Cc1ccc(CN2CCc3nc(-c4ccccn4)[nH]c(=O)c3C2)cc1 [Compound 323201]	–	2.1 µM	–	–	–	–	–	–	all antibacterial activity was lost	> 128 µg/mL	> 128 µg/mL	> 128 µg/mL	> 128 µg/mL	> 128 µg/mL	> 128 µg/mL	> 128 µg/mL	–	–	–	–
Cc1nc(-c2nc3c(c(=O)[nH]2)CN(Cc2ccc(Cl)cc2)CC3)cs1 [Compound 323356]	> 128 µg/mL	> 300 µM	128 µg/mL (≈ 343 µM)	> 128 µg/mL	128 µg/mL (≈ 343 µM)	64 µg/mL (≈ 172 µM)	128 µg/mL (≈ 343 µM)	8 µg/mL (≈ 21.5 µM)	slight antibacterial activity	–	–	–	–	–	–	–	–	abolished all biochemical activity	–	–
O=c1[nH]c(-c2ccccn2)nc2c1CN(Cc1ccc(Br)cc1)CC2 [Compound 323341]	–	41.4 µM	–	–	–	–	–	–	–	16 µg/mL (≈ 40.3 µM)	4 µg/mL (≈ 10.1 µM)	16 µg/mL (≈ 40.3 µM)	8 µg/mL (≈ 20.1 µM)	2 µg/mL (≈ 5.03 µM)	32 µg/mL (≈ 80.5 µM)	≤0.12 µg/mL	+++	–	–	–
O=c1[nH]c(-c2ccccn2)nc2c1CCN(Cc1ccc(Cl)cc1)CC2 [Compound 332058]	4 µg/mL (≈ 10.9 µM)	0.56 µM	2 µg/mL (≈ 5.45 µM)	16 µg/mL (≈ 43.6 µM)	4 µg/mL (≈ 10.9 µM)	0.5 µg/mL (≈ 1.36 µM)	16 µg/mL (≈ 43.6 µM)	≤ 0.12 µg/mL	–	–	–	–	–	–	–	–	–	–	–	+++
O=c1[nH]c(-c2ccccn2)nc2c1CN(Cc1cc(Cl)cc(Cl)c1)CC2 [Compound 323339]	–	19 µM	–	–	–	–	–	–	–	2 µg/mL (≈ 5.16 µM)	4 µg/mL (≈ 10.3 µM)	32 µg/mL (≈ 82.6 µM)	2 µg/mL (≈ 5.16 µM)	8 µg/mL (≈ 20.7 µM)	64 µg/mL (≈ 165 µM)	≤0.12 µg/mL	+++	–	–	–
O=c1[nH]c(-c2ccccn2)nc2c1CN(Cc1ccc(Cl)cc1Cl)CC2 [Compound 323343]	–	8.24 µM	–	–	–	–	–	–	–	2 µg/mL (≈ 5.16 µM)	2 µg/mL (≈ 5.16 µM)	8 µg/mL (≈ 20.7 µM)	4 µg/mL (≈ 10.3 µM)	1 µg/mL (≈ 2.58 µM)	32 µg/mL (≈ 82.6 µM)	≤0.12 µg/mL	+++	–	–	–
O=c1[nH]c(-c2ccccn2)nc2c1CN(Cc1ccc(Cl)c(Cl)c1)CC2 [Compound 323342]	–	28.9 µM	–	–	–	–	–	–	–	16 µg/mL (≈ 41.3 µM)	2 µg/mL (≈ 5.16 µM)	32 µg/mL (≈ 82.6 µM)	4 µg/mL (≈ 10.3 µM)	2 µg/mL (≈ 5.16 µM)	32 µg/mL (≈ 82.6 µM)	≤0.12 µg/mL	+++	–	–	–
